From ChEMBL document CHEMBL1154022, “Efficient synthesis of 3,3-diheteroaromatic oxindole analogues and their in vitro evaluation for spermicidal potential” (Bioorg Med Chem Lett, 2009)

system: Spermatozoa; test: Spermicidal activity in rat spermatozoa assessed as […]; format: functional; conditions: read-out: MEC

SMILES	minimal effective concentration [µg/mL]
COc1ccc2[nH]cc(C3(c4c[nH]c5ccc(OC)cc45)C(=O)Nc4ccccc43)c2c1	340
CCCCCCCCCc1ccc(OCCOCCOCCOCCOCCOCCOCCOCCOCCO)cc1 [NONOXYNOL 9]	500
Cc1c(C2(c3[nH]c4ccccc4c3C)C(=O)Nc3ccccc32)[nH]c2ccccc12	1000
O=C(O)c1[nH]c2ccccc2c1C1(c2c(C(=O)O)[nH]c3ccccc23)C(=O)Nc2ccccc21	1110
O=C1Nc2ccccc2C1(c1ccc[nH]1)c1ccc[nH]1	3150
O=C1Nc2ccccc2C1(c1c[nH]c2ccc(Br)cc12)c1c[nH]c2ccc(Br)cc12	3180
Cn1cc(C2(c3cn(C)c4ccccc34)C(=O)Nc3ccccc32)c2ccccc21	2360
O=C1Nc2ccccc2C1(c1c[nH]c2ccccc12)c1c[nH]c2ccccc12	2400
Cc1[nH]c2ccccc2c1C1(c2c(C)[nH]c3ccccc23)C(=O)Nc2ccccc21	2820
O=C(O)Cc1c(C2(c3[nH]c4ccccc4c3CC(=O)O)C(=O)Nc3ccccc32)[nH]c2ccccc12	530

system: not listed separately; test: Toxicity against rabbit erythrocytes assessed as hemolytic index; format: cell-based, Oryctolagus cuniculus; conditions: erythrocyte

SMILES	Activity [mg/mL]
COc1ccc2[nH]cc(C3(c4c[nH]c5ccc(OC)cc45)C(=O)Nc4ccccc43)c2c1	3.3
